# Measured values taken from paper PMC6437697 (Journal of Medicinal Chemistry, 2019).
# Tests used:
# Experiment in all cases: KINOMEscan
# Format in all cases: binding
# Conditions in all cases: read-out: % control activity remaining
# HIPK1 = biological target: T1, HIPK1 (Homo sapiens, UniProt Q86Z02)
# T1 construct: purchased Eurofins DiscoverX KINOMEscan
# TSSK1B = biological target: T2, TSSK1B (Homo sapiens, UniProt Q9BXA7)
# T2 construct: purchased Eurofins DiscoverX KINOMEscan
# T2 sequence (Q9BXA7 1-367): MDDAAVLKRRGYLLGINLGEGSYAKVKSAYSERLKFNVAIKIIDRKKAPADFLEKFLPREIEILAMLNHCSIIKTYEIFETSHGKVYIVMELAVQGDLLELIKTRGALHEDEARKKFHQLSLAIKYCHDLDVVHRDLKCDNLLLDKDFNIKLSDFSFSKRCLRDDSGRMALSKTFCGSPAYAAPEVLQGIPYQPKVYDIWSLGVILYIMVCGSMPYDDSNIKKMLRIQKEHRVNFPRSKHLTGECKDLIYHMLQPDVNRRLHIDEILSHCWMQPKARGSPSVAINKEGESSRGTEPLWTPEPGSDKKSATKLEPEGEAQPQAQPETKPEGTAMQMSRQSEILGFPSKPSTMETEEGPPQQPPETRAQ
# ACVR1 = biological target: T3, ACVR1 (Homo sapiens, UniProt Q04771)
# T3 construct: purchased Eurofins DiscoverX KINOMEscan
# T3 sequence (Q04771 21-509): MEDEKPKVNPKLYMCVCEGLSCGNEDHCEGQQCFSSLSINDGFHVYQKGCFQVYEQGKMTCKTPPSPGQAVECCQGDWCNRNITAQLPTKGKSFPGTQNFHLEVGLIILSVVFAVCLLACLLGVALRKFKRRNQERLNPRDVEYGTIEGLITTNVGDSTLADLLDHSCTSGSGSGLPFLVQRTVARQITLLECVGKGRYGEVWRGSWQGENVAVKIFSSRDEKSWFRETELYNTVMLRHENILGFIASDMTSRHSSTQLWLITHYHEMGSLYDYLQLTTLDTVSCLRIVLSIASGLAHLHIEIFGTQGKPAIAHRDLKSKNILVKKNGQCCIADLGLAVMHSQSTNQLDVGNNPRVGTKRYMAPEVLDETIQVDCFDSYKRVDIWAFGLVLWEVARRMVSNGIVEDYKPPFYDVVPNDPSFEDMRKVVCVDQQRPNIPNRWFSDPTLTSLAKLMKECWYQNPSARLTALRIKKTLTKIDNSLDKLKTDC
# GAK = biological target: T4, GAK (Homo sapiens, UniProt O14976)
# T4 construct: purchased Eurofins DiscoverX KINOMEscan
# T4 sequence (O14976 1-1311): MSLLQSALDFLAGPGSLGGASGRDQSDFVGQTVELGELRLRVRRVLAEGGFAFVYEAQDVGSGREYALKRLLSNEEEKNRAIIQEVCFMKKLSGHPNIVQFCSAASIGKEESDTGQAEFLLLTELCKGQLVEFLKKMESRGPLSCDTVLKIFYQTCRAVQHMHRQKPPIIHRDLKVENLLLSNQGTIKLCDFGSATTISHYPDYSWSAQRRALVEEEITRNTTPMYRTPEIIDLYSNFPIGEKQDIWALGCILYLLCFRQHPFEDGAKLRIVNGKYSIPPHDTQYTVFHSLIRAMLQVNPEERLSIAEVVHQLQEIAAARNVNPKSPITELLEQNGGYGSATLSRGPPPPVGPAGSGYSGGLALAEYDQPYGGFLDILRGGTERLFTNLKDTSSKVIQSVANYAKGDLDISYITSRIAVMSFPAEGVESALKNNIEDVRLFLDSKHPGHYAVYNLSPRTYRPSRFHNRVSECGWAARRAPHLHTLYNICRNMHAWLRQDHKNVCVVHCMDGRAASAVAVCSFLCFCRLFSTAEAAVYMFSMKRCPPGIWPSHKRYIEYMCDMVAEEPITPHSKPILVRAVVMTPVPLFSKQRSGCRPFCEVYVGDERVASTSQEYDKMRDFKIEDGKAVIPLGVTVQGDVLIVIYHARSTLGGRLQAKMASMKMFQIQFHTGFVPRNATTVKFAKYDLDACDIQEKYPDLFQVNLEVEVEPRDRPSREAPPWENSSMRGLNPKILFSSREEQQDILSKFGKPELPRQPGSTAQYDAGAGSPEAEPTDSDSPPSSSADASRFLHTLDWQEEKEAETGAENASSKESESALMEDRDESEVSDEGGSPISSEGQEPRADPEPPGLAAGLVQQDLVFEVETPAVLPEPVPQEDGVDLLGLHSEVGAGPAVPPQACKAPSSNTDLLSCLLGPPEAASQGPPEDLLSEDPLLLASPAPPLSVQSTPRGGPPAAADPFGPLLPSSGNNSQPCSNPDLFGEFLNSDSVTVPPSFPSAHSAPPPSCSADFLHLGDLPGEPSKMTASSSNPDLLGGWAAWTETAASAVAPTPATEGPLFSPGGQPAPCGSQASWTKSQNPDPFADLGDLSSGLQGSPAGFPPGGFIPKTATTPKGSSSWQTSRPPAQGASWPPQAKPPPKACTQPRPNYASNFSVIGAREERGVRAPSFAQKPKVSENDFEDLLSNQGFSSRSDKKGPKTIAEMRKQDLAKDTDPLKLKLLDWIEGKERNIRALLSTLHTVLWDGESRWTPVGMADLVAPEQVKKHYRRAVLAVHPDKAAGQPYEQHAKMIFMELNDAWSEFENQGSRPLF
# CDK8 = biological target: T5, CDK8 (Homo sapiens, UniProt P49336)
# T5 construct: purchased Eurofins DiscoverX KINOMEscan
# PHKG1 = biological target: T6, PHKG1 (Homo sapiens, UniProt Q16816)
# T6 construct: purchased Eurofins DiscoverX KINOMEscan
# HIPK3 = biological target: T7, HIPK3 (Homo sapiens, UniProt Q9H422)
# T7 construct: purchased Eurofins DiscoverX KINOMEscan
# T7 sequence (Q9H422 whole entry): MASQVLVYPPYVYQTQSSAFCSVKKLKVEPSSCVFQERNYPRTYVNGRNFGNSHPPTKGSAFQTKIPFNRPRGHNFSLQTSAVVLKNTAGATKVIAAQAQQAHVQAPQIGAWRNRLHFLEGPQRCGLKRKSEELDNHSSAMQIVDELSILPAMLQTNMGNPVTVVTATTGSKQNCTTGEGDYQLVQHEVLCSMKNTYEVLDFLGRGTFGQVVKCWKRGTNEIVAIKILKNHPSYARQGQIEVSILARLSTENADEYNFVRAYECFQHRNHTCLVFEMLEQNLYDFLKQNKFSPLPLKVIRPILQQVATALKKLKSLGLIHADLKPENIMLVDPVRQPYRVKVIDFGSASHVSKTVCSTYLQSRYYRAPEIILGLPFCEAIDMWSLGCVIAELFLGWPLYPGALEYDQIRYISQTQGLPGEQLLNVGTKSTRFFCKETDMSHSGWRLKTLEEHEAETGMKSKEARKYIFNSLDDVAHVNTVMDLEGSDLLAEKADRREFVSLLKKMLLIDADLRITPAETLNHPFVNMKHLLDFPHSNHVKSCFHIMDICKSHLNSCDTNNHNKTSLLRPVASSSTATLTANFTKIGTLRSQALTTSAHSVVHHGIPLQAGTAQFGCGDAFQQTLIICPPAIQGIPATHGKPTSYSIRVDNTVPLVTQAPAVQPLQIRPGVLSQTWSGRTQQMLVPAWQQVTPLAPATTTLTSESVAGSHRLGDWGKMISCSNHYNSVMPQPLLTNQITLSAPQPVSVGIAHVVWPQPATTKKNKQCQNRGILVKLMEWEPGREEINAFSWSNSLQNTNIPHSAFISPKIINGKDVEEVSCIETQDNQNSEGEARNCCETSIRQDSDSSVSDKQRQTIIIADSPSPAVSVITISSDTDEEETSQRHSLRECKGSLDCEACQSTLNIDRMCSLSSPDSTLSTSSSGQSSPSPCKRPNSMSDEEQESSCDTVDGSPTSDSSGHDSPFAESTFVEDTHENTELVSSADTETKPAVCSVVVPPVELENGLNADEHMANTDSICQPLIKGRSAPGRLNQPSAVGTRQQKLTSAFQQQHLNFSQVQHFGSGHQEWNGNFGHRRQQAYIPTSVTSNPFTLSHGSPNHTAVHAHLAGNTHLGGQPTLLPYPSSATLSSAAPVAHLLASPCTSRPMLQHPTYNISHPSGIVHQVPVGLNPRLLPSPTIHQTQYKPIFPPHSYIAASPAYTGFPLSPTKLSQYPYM
# T6 sequence (Q16816 whole entry): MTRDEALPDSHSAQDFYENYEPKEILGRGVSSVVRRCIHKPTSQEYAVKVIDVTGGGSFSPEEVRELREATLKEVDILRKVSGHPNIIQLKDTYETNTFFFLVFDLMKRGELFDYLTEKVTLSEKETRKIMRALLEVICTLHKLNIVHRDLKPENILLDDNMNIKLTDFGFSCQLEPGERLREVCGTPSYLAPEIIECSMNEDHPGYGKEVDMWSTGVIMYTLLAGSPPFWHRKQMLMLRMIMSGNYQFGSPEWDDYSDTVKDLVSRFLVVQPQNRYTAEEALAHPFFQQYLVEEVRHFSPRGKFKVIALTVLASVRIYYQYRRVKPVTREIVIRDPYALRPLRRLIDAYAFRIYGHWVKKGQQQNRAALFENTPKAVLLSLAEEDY
# T1 sequence (Q86Z02 whole entry): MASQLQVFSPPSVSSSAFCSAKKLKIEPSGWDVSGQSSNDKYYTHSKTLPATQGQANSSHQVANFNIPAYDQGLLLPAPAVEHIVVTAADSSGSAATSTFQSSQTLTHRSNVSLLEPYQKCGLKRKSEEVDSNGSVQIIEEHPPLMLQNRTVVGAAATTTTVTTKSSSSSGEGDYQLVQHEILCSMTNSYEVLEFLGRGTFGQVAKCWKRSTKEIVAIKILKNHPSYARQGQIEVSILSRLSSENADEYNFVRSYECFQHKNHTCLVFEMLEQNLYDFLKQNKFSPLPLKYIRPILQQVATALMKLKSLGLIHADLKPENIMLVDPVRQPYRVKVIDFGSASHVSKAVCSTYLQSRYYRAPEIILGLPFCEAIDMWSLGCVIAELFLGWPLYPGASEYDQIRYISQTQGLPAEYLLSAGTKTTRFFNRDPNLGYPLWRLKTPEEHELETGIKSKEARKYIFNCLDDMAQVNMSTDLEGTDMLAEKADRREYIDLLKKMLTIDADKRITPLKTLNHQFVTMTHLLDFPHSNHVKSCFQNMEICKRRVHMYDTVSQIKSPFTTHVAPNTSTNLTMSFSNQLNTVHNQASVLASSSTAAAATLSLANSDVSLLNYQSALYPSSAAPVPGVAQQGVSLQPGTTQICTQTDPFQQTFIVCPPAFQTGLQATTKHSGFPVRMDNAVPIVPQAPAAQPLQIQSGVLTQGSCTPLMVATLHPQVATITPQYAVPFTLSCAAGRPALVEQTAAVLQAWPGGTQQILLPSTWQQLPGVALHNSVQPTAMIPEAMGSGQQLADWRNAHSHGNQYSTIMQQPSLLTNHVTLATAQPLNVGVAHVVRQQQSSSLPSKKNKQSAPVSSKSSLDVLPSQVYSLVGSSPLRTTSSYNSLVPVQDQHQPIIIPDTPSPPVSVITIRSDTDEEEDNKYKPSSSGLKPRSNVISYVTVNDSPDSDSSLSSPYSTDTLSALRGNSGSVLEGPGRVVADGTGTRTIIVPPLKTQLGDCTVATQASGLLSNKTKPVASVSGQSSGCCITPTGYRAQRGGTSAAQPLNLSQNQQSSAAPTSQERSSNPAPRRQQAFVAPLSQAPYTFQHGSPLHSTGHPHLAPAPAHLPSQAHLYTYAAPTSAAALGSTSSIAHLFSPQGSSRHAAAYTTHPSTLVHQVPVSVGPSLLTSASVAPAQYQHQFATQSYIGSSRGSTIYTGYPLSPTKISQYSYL
# T5 sequence (P49336 whole entry): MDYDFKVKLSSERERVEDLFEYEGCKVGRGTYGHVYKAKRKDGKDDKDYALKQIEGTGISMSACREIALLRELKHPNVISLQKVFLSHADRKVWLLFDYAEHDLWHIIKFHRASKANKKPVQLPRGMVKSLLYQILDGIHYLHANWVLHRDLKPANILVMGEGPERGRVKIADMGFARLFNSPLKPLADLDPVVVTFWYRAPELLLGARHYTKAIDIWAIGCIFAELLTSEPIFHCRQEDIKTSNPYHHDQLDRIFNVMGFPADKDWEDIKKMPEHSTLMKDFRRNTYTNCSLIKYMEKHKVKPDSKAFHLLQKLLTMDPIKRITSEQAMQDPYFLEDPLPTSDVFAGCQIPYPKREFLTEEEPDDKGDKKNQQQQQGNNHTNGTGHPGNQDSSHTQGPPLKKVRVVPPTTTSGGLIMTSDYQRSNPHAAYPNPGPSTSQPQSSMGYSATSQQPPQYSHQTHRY
Structure (SMILES),remaining binding at 1 µM (HIPK1) [%],remaining binding at 1 µM (TSSK1B) [%],remaining binding at 1 µM (ACVR1) [%],remaining binding at 1 µM (GAK) [%],remaining binding at 1 µM (CDK8) [%],remaining binding at 1 µM (PHKG1) [%],remaining binding at 1 µM (HIPK3) [%]
"Clc1cc(NCC2CC2)c2ncc(-c3ccc4[nH]ncc4c3)n2n1 [compound 2, 6-Chloro-N-(cyclopropylmethyl)-3-(1H-indazol-5-yl)imidazo[1,2-b]pyridazin-8-amine]",42,100,90,8.8,82,91,63
O=C(CN1CCOCC1)N[C@H]1CC[C@H](Nc2cc(Cl)nn3c(-c4ccc5[nH]ncc5c4)cnc23)CC1 [compound 26],0.45,92,95,10,97,17,2.4
"CN1CCC(CNc2cc(Cl)nn3c(-c4cc5nc(Nc6ccccc6)[nH]c5cc4F)cnc23)CC1 [compound 31, 6-Chloro-3-(6-fluoro-2-(phenylamino)-1H-benzo[d]imidazol-5-yl)-N-((1-methylpiperidin-4-yl)methyl)imidazo[1,2-b]pyridazin-8-amine]",74,88,99,33,70,92,89
